Measured values from patent publication US8802678B2, “Carbonylated (aza) cyclohexanes as dopamine D3 receptor ligands” (Bioprojet, priority 2006, dated 2014).
Counter-ions that a name gives are not always drawn.

Legend:
human D3 receptor = human D3 receptor (Homo sapiens, UniProt P35462); test: [3H]spiperone binding, membranes of CHO cells transfected with human D3 receptor cDNA; conditions: affinity for the human D3 receptor; [3H]spiperone 0.5-2 nM, CHO-hD3 membranes, 60 minutes at room temperature
Procedure: Affinity of compounds for the human D3 receptor can be determined by [^3H] spiperone binding CHO cells have been transfected by the cDNA coding for the human D3 receptor (hD3). [^3H]Spiperone (0.5 à 2 nM) binding is performed in the presence of 2.5 to 5 μg of membrane proteins in a medium containing 120 mM NaCl, 5 mM KCl, and 50 mM Tris HCl pH 7.4; incubation for 60 minutes at room temperature is performed. Non specific binding is estimated in the presence of 10 μM haloperidol. Non transfected cells are devoid of any specific binding.

Sequence of human D3 receptor (P35462 whole entry): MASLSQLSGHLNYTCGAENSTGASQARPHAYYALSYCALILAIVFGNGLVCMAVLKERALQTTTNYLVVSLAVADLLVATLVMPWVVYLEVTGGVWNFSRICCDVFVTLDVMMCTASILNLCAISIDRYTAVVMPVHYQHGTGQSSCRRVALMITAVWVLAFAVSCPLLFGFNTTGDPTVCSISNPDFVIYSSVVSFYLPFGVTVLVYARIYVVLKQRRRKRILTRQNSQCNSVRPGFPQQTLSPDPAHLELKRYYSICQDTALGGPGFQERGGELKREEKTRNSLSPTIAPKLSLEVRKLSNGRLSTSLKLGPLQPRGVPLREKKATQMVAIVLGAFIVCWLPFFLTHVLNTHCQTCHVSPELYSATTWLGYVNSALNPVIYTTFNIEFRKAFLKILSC

| Ki (human D3 receptor) | melting point | SMILES |
| --- | --- | --- |
| 8.5 nM | 82 °C | COCC(=O)NC1CCC(CCN2CCC(c3cccc(C(F)(F)F)c3)CC2)CC1 (mixture of isomers) [Example 61, 2-Methoxy-N-(4-{2-[4-(3-trifluoromethylphenyl)piperidin-1-yl]ethyl}cyclohexyl)acetamide trans/cis 95/5] |
| 3.5 nM | 164 to 167 °C | N#CCNC(=O)CC1CCC(CCN2CCN(c3ccccc3F)CC2)CC1 (mixture of isomers) [Example 308, N-Cyanomethyl-2-(4-{2-[4-(2-fluorophenyl)piperazin-1-yl]ethyl}cyclohexyl)acetamide trans/cis 90/10] |
| 6.6 nM | – | CC(=O)C(=O)N1CCC(CCN2CCN(c3cccc(C(F)(F)F)c3)CC2)CC1 [Example 2, 1-(4-{2-[4-(3-trifluoromethylphenyl)piperazin-1-yl]ethyl}-piperidin-1-yl)propane-1,2-dione, hydrochloride] |
| 15.1 nM | 133 °C | CC(=O)NCC(=O)N1CCC(CCN2CCN(c3cccc(C(F)(F)F)c3)CC2)CC1 [Example 14, N-[2-Oxo-2-(4-{2-[4-(3-trifluoromethylphenyl)piperazin-1-yl]ethyl}piperidin-1-yl)ethyl]acetamide] |
| 1.32 nM | 338 °C | CC(=O)CN1CCC(CCN2CCN(c3cccc4ccccc34)CC2)CC1.Cl.Cl [Example 36, 1-{4-[2-(4-Naphthalen-1-ylpiperazin-1-yl)ethyl]piperidin-1-yl}propan-2-one] |
| 31.6 nM | 208 °C | O=C(N[C@H]1CC[C@H](CCN2CCN(c3ccccn3)CC2)CC1)C1CC=CC1 [Example 65, Cyclopent-3-enecarboxylic acid {4-[2-(4-pyridin-2-ylpiperazin-1-yl)ethyl]cyclohexyl}amide] |
| 10.6 nM | 215 °C | N#Cc1ccc2c(c1)CCN(CC[C@H]1CC[C@H](NC(=O)CC(F)(F)F)CC1)C2 [Example 110, N-{4-[2-(6-Cyano-3,4-dihydro-1H-isoquinolin-2-yl)ethyl]cyclohexyl}-3,3,3-trifluoropropanamide] |
| 3.9 nM | 252 °C | NC(=O)CCC(=O)N[C@H]1CC[C@H](CCN2CCN(c3ccccc3)CC2)CC1 [Example 187, N-{4-[2-(4-Phenylpiperazin-1-yl)ethyl]cyclohexyl}succinamide] |
| 4.4 nM | 87 °C | O=C(C=C1CCC(CCN2CCN(c3cccc(C(F)(F)F)c3)CC2)CC1)N1CCCC1 (stereo not drawn) [Example 291, 1-Pyrrolidin-1-yl-2-(4-{2-[4-(3-trifluoromethylphenyl)piperazin-1-yl]ethyl}cyclohexylidene) ethanone] |
| – | 118 °C | CCOC(=O)Nc1cccc(N2CCN(CCC3CCN(CC(C)=O)CC3)CC2)c1 [Example 777, [3-(4-{2-[1-(2-oxopropyl)piperidin-4-yl]ethyl}piperazin-1-yl)phenyl]carbamic acid ethyl ester] |

| SMILES | Ki (human D3 receptor) | melting point |
| --- | --- | --- |
| CC(=O)CC1CCC(CCN2CCN(c3ccccc3F)CC2)CC1.Cl (mixture of isomers) [Example 288, 1-(4-{2-[4-(2-Fluorophenyl)-piperazin-1-yl]ethyl}cyclohexyl)-propan-2-one, hydrochloride trans/cis 80/20] | 2.1 nM | 233 to 236 °C |
| Cl.N#CCC(=O)N1CCC(CCN2CCN(c3cccc(C(F)(F)F)c3)CC2)CC1 [Example 15, 3-Oxo-3-(4-{2-[4-(3-trifluoromethylphenyl)piperazin-1-yl]ethyl}piperidin-1-yl)propanenitrile, hydrochloride] | 15.1 nM | 184 °C |
| COc1ccccc1N1CCN(CCC2CCN(CC(C)=O)CC2)CC1.Cl.Cl [Example 20, 1-(4-{2-[4-(2-Methoxy-phenyl)piperazin-1-yl]ethyl}piperidin-1-yl)propan-2-one, dihydrochloride] | 9.5 nM | 260 °C |
| O=C(CO)N[C@H]1CC[C@H](CCN2CCN(c3cccc(C(F)(F)F)c3)CC2)CC1 [Example 46, 2-Hydroxy-N-(4-{2-[4-(3-trifluoromethylphenyl)piperazin-1-yl]ethyl}cyclohexyl)acetamide, hydrochloride] | 12 nM | – |
| COCC(=O)N[C@H]1CC[C@H](CCN2CC=C(c3cccc(C)c3C#N)CC2)CC1 [Example 54, N-(4-{2-[4-(2-Cyano-3-methylphenyl)-3,6-dihydro-2H-pyridin-1-yl]ethyl}cyclohexyl)-2-methoxyacetamide] | 18.3 nM | 158 °C |
